The target in one assay is Ephrin type-A receptor 4 (Homo sapiens, UniProt P54764).
Assay [1] deals with Casein kinase I isoform epsilon (Homo sapiens, UniProt P49674).
Assay [2] has as its target T1, Bone morphogenetic protein receptor type-2 (Homo sapiens, UniProt Q13873).
T1 sequence (Q13873 whole entry): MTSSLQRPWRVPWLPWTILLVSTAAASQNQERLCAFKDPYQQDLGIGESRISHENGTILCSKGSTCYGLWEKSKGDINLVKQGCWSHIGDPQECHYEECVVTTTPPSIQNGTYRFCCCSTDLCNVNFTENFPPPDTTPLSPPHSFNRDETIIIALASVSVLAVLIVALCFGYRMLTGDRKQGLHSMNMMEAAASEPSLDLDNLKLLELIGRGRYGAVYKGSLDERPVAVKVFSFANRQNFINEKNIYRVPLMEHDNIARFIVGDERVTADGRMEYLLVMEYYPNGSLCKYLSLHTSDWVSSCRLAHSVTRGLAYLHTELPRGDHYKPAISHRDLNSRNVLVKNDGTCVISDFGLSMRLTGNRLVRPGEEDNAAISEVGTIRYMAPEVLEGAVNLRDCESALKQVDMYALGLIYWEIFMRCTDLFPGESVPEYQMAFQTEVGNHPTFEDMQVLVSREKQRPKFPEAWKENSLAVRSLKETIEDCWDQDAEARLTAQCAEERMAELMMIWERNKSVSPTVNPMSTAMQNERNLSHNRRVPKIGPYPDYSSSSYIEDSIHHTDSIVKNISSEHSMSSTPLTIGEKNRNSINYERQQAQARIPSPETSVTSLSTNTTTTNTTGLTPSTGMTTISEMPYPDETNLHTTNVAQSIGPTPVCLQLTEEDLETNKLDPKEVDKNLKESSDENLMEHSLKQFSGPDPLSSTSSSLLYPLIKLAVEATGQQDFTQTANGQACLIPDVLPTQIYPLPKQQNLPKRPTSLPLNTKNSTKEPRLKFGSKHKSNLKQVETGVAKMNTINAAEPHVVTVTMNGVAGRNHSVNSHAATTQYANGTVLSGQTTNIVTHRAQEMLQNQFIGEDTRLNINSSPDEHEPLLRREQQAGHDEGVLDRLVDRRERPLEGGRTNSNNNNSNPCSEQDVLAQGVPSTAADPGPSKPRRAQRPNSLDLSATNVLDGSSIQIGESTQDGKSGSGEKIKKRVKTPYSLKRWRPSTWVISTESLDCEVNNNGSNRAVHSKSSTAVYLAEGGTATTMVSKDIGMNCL

The target in assay [3] is T2, Peroxisomal acyl-coenzyme A oxidase 1 (Homo sapiens, UniProt Q15067).
T2 sequence (Q15067 whole entry): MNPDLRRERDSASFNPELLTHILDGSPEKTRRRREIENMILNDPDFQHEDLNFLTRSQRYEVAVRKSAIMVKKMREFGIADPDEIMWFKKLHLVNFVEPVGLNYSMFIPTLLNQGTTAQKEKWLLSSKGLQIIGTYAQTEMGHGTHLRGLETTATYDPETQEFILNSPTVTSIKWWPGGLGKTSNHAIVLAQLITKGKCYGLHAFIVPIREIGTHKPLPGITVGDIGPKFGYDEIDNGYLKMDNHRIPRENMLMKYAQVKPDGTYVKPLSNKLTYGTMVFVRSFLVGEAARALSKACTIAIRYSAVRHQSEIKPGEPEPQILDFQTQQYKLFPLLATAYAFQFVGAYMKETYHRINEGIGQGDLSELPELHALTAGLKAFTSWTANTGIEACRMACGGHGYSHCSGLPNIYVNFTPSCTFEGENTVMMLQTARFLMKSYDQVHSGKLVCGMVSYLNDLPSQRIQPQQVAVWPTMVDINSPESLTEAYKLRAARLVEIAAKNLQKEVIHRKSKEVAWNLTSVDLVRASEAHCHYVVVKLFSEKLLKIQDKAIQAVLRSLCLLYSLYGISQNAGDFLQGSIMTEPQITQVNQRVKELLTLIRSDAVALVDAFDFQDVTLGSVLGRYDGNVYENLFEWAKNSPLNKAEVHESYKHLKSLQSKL

Assay [4] has as its target Atypical kinase COQ8A, mitochondrial (Homo sapiens, UniProt Q8NI60).
For assay [5], the target named is T3, Mitogen-activated protein kinase 15 (Homo sapiens, UniProt Q8TD08).
T3 sequence (Q8TD08 whole entry): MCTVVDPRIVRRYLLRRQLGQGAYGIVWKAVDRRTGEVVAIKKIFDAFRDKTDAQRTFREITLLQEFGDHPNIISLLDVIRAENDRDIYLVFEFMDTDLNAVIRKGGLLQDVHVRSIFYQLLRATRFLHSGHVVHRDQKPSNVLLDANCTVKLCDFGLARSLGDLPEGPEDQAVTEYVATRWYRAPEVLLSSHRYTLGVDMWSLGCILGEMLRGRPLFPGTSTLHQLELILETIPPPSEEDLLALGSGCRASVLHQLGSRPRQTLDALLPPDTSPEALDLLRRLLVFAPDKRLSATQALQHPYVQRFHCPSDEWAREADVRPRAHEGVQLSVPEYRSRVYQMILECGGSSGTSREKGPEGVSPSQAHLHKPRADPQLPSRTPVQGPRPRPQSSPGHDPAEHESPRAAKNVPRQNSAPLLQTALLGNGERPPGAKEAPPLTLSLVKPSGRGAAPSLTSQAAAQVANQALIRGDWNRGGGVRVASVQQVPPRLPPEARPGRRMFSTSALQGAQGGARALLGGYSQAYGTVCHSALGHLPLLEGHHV

Assay [6] concerns the target T4, Electron transfer flavoprotein subunit beta (Homo sapiens, UniProt P38117).
T4 sequence (P38117 whole entry): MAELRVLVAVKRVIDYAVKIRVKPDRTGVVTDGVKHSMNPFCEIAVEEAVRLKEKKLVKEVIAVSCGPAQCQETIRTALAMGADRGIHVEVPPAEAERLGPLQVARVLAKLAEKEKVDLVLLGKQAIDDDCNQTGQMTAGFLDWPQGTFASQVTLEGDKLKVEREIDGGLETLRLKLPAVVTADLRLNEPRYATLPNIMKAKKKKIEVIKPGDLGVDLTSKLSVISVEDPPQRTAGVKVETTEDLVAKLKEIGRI

The target in assay [7] is Casein kinase II subunit alpha' (Homo sapiens, UniProt P19784).
Chain of Casein kinase II subunit alpha' (P19784 whole entry): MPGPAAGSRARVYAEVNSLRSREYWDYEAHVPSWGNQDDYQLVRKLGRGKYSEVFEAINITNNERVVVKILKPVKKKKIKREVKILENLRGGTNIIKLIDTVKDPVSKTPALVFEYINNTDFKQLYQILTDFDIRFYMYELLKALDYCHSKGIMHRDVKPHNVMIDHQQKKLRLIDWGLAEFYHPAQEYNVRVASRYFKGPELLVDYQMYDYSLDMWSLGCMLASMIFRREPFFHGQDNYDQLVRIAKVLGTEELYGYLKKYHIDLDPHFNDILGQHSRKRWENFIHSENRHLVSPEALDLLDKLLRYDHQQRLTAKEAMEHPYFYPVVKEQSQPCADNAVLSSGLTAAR
The target in assay [8] is Mitogen-activated protein kinase kinase kinase kinase 5 (Homo sapiens, UniProt Q9Y4K4).
Chain of Mitogen-activated protein kinase kinase kinase kinase 5 (Q9Y4K4 whole entry): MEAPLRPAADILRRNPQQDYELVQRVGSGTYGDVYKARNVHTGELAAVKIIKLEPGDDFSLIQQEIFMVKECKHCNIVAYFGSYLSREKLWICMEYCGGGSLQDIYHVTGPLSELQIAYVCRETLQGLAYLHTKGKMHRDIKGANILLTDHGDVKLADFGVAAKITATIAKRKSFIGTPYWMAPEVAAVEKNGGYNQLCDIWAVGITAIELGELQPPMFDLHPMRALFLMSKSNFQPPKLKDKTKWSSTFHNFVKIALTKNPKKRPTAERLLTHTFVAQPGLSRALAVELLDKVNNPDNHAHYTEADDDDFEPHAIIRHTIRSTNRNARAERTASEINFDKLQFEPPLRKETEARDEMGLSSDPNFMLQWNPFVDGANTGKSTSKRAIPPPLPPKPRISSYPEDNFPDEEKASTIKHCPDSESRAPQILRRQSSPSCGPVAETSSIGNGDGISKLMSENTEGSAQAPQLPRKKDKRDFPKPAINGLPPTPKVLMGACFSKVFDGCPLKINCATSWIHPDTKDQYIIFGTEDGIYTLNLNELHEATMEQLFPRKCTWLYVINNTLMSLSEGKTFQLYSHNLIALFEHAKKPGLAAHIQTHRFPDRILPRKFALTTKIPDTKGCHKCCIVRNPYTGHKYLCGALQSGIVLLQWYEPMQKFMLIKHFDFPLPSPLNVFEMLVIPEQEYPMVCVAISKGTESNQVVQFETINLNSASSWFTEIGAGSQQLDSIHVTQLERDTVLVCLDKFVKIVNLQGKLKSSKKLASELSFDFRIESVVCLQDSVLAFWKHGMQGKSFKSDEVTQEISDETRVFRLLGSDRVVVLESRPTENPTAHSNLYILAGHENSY

pKd: −log10 of the molar value. Calls of active or inactive are those of the source. Rule as the data show it, for most assays here: actives have a measured Kd and inactives only a lower limit.
Also: in the data inactive means no Kd found up to 30 µM.

Chain of Casein kinase I isoform epsilon (P49674 whole entry, canonical isoform): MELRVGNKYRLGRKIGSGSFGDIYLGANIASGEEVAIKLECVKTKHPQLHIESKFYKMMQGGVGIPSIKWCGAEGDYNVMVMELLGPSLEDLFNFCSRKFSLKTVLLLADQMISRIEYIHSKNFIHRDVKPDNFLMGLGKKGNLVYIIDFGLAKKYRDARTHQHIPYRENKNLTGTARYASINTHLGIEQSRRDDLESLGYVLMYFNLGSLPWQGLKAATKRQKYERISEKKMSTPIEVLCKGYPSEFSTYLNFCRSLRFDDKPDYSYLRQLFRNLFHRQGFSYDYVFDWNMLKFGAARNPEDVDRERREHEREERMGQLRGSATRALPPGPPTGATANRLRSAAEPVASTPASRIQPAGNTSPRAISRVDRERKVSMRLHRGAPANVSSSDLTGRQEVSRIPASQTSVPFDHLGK
Chain of Ephrin type-A receptor 4 (P54764 whole entry, canonical isoform): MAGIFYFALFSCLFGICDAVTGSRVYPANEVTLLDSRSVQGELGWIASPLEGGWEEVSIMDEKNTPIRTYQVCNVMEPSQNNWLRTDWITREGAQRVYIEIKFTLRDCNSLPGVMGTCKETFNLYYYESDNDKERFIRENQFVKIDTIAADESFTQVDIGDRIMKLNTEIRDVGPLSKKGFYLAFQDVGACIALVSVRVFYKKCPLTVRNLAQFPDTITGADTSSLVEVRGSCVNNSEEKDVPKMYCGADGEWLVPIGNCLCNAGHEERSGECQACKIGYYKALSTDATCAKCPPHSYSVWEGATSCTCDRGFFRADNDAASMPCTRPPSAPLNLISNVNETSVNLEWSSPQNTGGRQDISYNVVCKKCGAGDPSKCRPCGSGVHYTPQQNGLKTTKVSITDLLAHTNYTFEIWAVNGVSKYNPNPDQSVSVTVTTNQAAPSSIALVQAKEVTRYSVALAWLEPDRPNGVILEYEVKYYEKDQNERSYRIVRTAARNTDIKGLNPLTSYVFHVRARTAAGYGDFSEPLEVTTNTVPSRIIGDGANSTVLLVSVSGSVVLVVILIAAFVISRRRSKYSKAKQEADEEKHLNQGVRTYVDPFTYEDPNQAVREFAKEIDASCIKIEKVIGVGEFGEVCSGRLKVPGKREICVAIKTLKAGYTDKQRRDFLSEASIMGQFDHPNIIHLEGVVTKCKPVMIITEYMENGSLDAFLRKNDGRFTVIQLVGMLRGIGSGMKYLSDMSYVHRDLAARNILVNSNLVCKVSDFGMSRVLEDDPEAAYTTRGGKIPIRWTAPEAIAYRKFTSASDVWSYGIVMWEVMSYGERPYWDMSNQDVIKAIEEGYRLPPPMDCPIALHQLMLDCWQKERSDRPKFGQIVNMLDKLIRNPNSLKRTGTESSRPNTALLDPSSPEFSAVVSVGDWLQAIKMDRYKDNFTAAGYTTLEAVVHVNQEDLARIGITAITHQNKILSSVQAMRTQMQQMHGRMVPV
Chain of Atypical kinase COQ8A, mitochondrial (Q8NI60 whole entry): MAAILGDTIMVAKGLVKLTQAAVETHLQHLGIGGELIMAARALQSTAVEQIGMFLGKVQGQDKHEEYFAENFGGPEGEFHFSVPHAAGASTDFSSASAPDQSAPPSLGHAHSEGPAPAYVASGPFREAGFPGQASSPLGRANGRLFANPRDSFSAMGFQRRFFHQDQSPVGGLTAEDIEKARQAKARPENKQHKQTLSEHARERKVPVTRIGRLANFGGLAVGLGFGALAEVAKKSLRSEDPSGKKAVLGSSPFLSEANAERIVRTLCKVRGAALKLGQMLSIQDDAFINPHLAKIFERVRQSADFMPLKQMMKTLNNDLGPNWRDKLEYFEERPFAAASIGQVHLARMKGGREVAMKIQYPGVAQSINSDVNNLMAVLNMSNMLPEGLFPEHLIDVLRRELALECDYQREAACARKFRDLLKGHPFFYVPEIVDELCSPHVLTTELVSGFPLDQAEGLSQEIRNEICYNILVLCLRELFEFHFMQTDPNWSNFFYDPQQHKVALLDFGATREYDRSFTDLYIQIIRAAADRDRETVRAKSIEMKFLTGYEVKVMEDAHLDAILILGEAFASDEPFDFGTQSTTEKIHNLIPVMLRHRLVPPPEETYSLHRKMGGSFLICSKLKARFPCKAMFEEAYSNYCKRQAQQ

With `C=CCn1c(=O)c2cnc(Nc3ccc(N4CCN(C)CC4)cc3)nc2n1-c1cccc(C(C)(C)O)n1` [ADAVOSERTIB], the Kd (at Ephrin type-A receptor 4; in [1]; in assay [2]; in [3]; in assay [4]; in [5]) was > 30 µM (inactive) in each case. Besides, the Kd – broadly, a measure of binding affinity in units of concentration – is > 30 µM (inactive) in assay [6] and 0.412 µM (active) in [7].

With `CC1(C)CNc2cc(NC(=O)c3cccnc3NCc3ccncc3)ccc21` [MOTESANIB], the Kd in assay [3] and in [6] was > 30 µM (inactive) throughout.

As to `COc1cc2c(N3CCN(C(=O)Nc4ccc(OC(C)C)cc4)CC3)ncnc2cc1OCCCN1CCCCC1` [TANDUTINIB], the Kd in [3] and in assay [6] was > 30 µM (inactive) each time.

As to `O=S(=O)(c1cccc2cnccc12)N1CCCNCC1` [FASUDIL], the Kd (at Ephrin type-A receptor 4; in [1]; in [2]; in assay [3]; in assay [4]; in assay [5]) was > 30 µM (inactive) each time. The Kd in assay [6] and in [7] was > 30 µM (inactive) each time.

Consider `CNC(=O)c1ccc(Nc2ncc(C(F)(F)F)c(NCc3nccnc3N(C)S(C)(=O)=O)n2)cc1` [DEFACTINIB], for which the Kd at Ephrin type-A receptor 4 was > 30 µM (inactive); in [1], > 30 µM (inactive); in assay [2] it was > 30 µM (inactive); in [4], > 30 µM (inactive); in assay [5], > 30 µM (inactive); in [7], 1.2 µM (active). For the same compound, the Kd in assay [8] is > 30 µM (inactive).

For the compound `Cc1cc(C(=O)Nc2cc(Oc3ccc4nc(NC(=O)C5CC5)cn4n3)ccc2C)n(C)n1` [TAK-593], the Kd (on Ephrin type-A receptor 4; in assay [1]; in assay [2]; in assay [4]; in assay [5]; in [7]) was > 30 µM (inactive) in each case. The Kd in assay [8] is > 30 µM (inactive).

As for `N#CCNC(=O)c1ccc(-c2ccnc(Nc3ccc(N4CCOCC4)cc3)n2)cc1` [MOMELOTINIB], the Kd (on Ephrin type-A receptor 4; in assay [1]; in [2]; in assay [4]; in assay [5]; in assay [6]) was > 30 µM (inactive) in each case. Also, in [7], the Kd is 0.302 µM (active).

Regarding `CN(C)C/C=C/C(=O)Nc1cc2c(Nc3ccc(F)c(Cl)c3)ncnc2cc1O[C@H]1CCOC1` [AFATINIB], the Kd in assay [3] and in assay [6] was > 30 µM (inactive) throughout.

In the case of `CCN1CCN(Cc2ccc(Nc3ncc(F)c(-c4cc(F)c5nc(C)n(C(C)C)c5c4)n3)nc2)CC1` [ABEMACICLIB], the Kd is > 30 µM (inactive) at Ephrin type-A receptor 4; > 30 µM (inactive) in [1]; > 30 µM (inactive) in assay [2]; > 30 µM (inactive) in [4]; > 30 µM (inactive) in [5]; 0.019 µM (active) in assay [7]. Moreover, the Kd in [8] is > 30 µM (inactive).

With `Cn1cnc2c(F)c(Nc3ccc(Br)cc3Cl)c(C(=O)NOCCO)cc21` [SELUMETINIB], the Kd in assay [3] and in assay [6] was > 30 µM (inactive) each time.

In the case of `COc1cccc(Nc2ncnn3ccc(CN4CC[C@@H](N)[C@H](O)C4)c23)c1` [BMS-690514], the Kd on Ephrin type-A receptor 4 is > 30 µM (inactive); in assay [1], 3.64 µM (active); in [2], > 30 µM (inactive); in [3] it was > 30 µM (inactive); in [4], > 30 µM (inactive); in assay [5], > 30 µM (inactive).

Regarding `C=CCN(/C=C1/C(=O)O[C@H](COC)[C@@]2(C)C1=C(O)C(=O)C1=C2[C@H](OC(C)=O)C[C@]2(C)C(=O)CC[C@@H]12)CC=C` [SONOLISIB], the Kd (on Ephrin type-A receptor 4; in [1]; in assay [2]; in assay [4]; in assay [5]; in assay [7]) was > 30 µM (inactive) in each case. Also, the Kd in assay [8] was > 30 µM (inactive).

Consider `Cn1c(=O)n(-c2ccc(C(C)(C)C#N)cc2)c2c3cc(-c4cnc5ccccc5c4)ccc3ncc21` [DACTOLISIB], for which the Kd (at Ephrin type-A receptor 4; in assay [1]; in assay [2]; in [3]; in assay [4]; in assay [5]) was > 30 µM (inactive) throughout. In addition, the Kd in assay [6] and in assay [7] was > 30 µM (inactive) throughout.

With `CN1CCN(c2nc(C3=C(c4c[nH]c5ccccc45)C(=O)NC3=O)c3ccccc3n2)CC1` [SOTRASTAURIN], the Kd (at Ephrin type-A receptor 4; in assay [1]; in [2]; in assay [4]; in [5]; in [7]) was > 30 µM (inactive) throughout.

As for `COc1cc2c(Oc3ccc4[nH]c(C)cc4c3F)ncnc2cc1OCCCN1CCCC1` [CEDIRANIB], the Kd in [3] and in assay [6] was > 30 µM (inactive) each time.

With `CN(c1ncccc1CNc1nc(Nc2ccc3c(c2)CC(=O)N3)ncc1C(F)(F)F)S(C)(=O)=O` [PF-00562271], the Kd (at Ephrin type-A receptor 4; in assay [1]; in [2]; in assay [3]; in [4]; in [6]) was > 30 µM (inactive) each time. Also, the Kd in [7] is 0.998 µM (active). The negative logarithm of the Kd (pKd) (usually −log10 of the Kd, conventionally taken in molar units) in assay [5] is 5.83.

Take `C[C@@]1(C(=O)Nc2ccc(F)nc2)CCCN1c1nc(Nc2cc(C3CC3)n[nH]2)c2cccn2n1` [BMS-754807]: in [6], the Kd is > 30 µM (inactive).

For the origin of these results see ChEMBL document CHEMBL3991601, “The target landscape of clinical kinase drugs” (Science, 2017).
